Data from patent publication US4806532A, “Inhibition of epithelial phosphate transport” (Mayo Foundation for Medical Education and Research, priority 1985, dated 1989).
Counter-ions that a name gives are not always drawn.

What was measured:
Na-Pi cotransporter = biological target: T1, Na-Pi cotransporter (Oryctolagus cuniculus, UniProt Q28620); assay: Na+-gradient-dependent 32Pi uptake by renal BBMV, rabbit; format: biochemical
T1 construct: were prepared from renal cortices of mongrel dogs, albino mice and New Zealand albino rabbits; from tissue; host or cells: New Zealand albino rabbit renal cortex, brush border membrane vesicles
T1 sequence (Q28620 1-642): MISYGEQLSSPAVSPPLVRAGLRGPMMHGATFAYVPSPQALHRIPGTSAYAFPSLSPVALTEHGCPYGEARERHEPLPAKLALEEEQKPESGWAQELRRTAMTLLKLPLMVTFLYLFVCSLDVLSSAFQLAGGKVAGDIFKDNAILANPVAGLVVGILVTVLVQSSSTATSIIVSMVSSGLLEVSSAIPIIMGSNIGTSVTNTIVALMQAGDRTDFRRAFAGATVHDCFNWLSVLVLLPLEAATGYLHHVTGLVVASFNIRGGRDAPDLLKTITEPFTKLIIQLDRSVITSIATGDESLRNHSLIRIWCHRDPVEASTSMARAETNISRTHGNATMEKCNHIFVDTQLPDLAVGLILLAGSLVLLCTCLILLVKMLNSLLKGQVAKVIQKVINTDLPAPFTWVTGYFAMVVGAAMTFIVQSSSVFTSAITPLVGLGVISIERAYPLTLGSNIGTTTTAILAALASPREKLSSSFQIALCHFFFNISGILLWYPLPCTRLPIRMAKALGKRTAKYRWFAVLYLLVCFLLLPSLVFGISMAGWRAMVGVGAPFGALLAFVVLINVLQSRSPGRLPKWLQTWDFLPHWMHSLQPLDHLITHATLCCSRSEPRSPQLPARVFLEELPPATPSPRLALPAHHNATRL
Method: The brush border membrane vesicles (BBMV) were prepared from renal cortical tissue of adult male Sprague-Dawley rats of an average body weight of about 220 grams. Rats were fed ad libitum standard rat chow containing 0.7% Pi and had free access to distilled water. Rats were sacrificed under anesthesia and dissected renal cortical tissue was used for preparation of BBMV fraction by the divalent cation-precipitation procedure, employed and described in detail in J. Clin. Invest., 67, 1347 (1981) and J. Biol. Chem., 258, 5695 (1983), with the following modifications: (a) MgCl2 instead of CaCl2 was added to crude homogenate (final concentration 10 mM MgCl2) to precipitate membranes other than BBMV; (b) in the final step, BBMV were washed and equilibrated in a medium of pH=7.5, instead of pH=8.5. The enrichment and specific activities of typical BBM enzymes alkaline phosphatase (APases), γ-glutyamyl transferase (γ-GTT), leucineaminopeptidase (LAP) and maltase with use of these modifications were similar as in BBMV fractions prepared in our previous studies. As a final step in the preparative procedure, the BBMV fraction was washed and resuspended in a medium containing 300 mM mannitol and 5 mM Tris-HEPES adjusted to pH=t.5, referred to as "MTH-medium," unless specified otherwise. The analogous BBMV fractions, using the same procedure, were prepared from renal cortices of mongrel dogs, albino mice and New Zealand albino rabbits.
The BBMV uptake of ^32 Pi, D-[^3 H]-glucose, L-[^3 H]-proline and ^22 Na^+ was measured by means of a rapid filtration technique, as described in J. Clin. Invest., 67, 1347 (1981) and Am. J. Physiol., 246, F133-F139 (1984). Also, unless specified otherwise, the medium for the solute uptake assay consisted of following compounds (in final concentrations): 100 mM mannitol, 100 mM NaCl (or 100 mM KC1) and 5 mM Tris-HEPES (pH=7.5) and eitehr 0.1 mM K2 H^32 PO4, or 0.05 mM D-[^3 H]-glucose, or 0.025 mM L-[^3 H]-proline. IN the ^22 Na^+ uptake studies, the assay medium contained 100 mM ^22 NaCl (^22 NaCl about […] per tube), 100 mM mannitol and 5 mM Tris-HEPES (pH 7.5).
In most experiments, the Na^+ -gradient-dependent ^32 Pi uptake in the concentrative "uphill" phase was measured at 20 seconds period. Since Na^+ -independent Pi uptake in this time period was quantitatively minor component (<5%) of the Na^+ -gradient-dependent Pi uptake, it was not routinely subtracted.

BBM enzymes APase = biological target: T2, BBM enzymes APase (Rattus norvegicus, UniProt P08289); assay: Effect on BBM enzyme APase (data not shown); format: biochemical
T2 construct: from tissue; host or cells: renal brush border membrane vesicles (rat inferred)
T2 sequence (P08289 18-502 limits assumed): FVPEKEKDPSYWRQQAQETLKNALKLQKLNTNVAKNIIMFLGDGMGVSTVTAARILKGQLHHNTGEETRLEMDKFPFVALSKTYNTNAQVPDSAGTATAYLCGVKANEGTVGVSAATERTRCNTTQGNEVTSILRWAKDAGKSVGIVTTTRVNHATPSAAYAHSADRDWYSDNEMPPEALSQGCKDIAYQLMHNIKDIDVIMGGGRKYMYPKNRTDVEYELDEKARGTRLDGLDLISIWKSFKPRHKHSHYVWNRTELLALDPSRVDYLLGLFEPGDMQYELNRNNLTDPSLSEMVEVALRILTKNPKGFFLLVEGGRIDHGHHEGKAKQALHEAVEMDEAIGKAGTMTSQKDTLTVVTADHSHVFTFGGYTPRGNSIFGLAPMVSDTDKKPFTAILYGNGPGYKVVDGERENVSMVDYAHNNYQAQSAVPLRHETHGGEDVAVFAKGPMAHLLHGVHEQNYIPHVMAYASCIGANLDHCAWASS

For `O=C(O)P(=O)(O)O` [TPFA, Phosphonoformic acid, trisodium salt hexahydrate], the “32Pi-uptake 120 min” value (Na-Pi cotransporter; 1 mM TPFA, control 551 ± 15) was 532 ± 19 pmoles Pi/mg protein/time, the “32Pi-uptake 20 sec” value (Na-Pi cotransporter; 1 mM TPFA, control 768 ± 7) was 279 ± 4 pmoles Pi/mg protein/time and the “32Pi-uptake 20 sec” value (Na-Pi cotransporter; 5 mM TPFA) was 107 ± 5 pmoles Pi/mg protein/time. For the same compound, the “32Pi-uptake 120 min” value (Na-Pi cotransporter; 5 mM TPFA) was 549 ± 11 pmoles Pi/mg protein/time, the inhibition at 1000 µM (Na-Pi cotransporter; 20 s, 1 mM TPFA, read-out: percent decrease of 20 sec 32Pi-uptake relative to control value) was 63.7% and the inhibition at 5000 µM (Na-Pi cotransporter; 20 s, 5 mM TPFA, read-out: percent decrease of 20 sec 32Pi-uptake relative to control value) was 86.1%. For the same compound, the “effect on BBM enzyme APase” value (BBM enzymes APase) was “without inhibitory effect”.
